Data from PMC5833004 (ACS Central Science, 2018).
“Also recorded” adds a separate entry of the source. Each block holds one compound with its values, some of them ahead of it.

Experiments:
[1] = target: GFP-fused multimerized CBP bromodomain (Homo sapiens, UniProt Q92793); test: FRAP assay in U2OS cells, GFP-fused CBP bromodomain; assay type: cell-based; settings: compound 1 μM, 2.5 μM SAHA
[2] = system: LP1 cells; test: Cell proliferation, resazurin assay; assay type: cell-based, human; settings: 72 h or 144 h
[3] = system: c-MYC mRNA; test: RT-qPCR mRNA transcription in LP1 cells; assay type: cell-based, human; settings: 6 h incubation, dose-response
[4] = system: Kasumi cells; test: Cell proliferation, resazurin assay; assay type: cell-based, human; settings: 72 h or 144 h
[5] = target: bromodomain of CBP (Homo sapiens, UniProt Q92793); test: Alpha Screen assay; assay type: binding
[6] = system: MRC5 nontransformed fibroblast; test: Cell proliferation, resazurin assay; assay type: cell-based; settings: Homo sapiens, MRC5, 72 h, read-out: GI50 MRC5
[7] = system: IRF4 mRNA; test: RT-qPCR mRNA transcription in LP1 cells; assay type: cell-based, human; settings: 6 h incubation, dose-response
[8] = system: HL-60 cells; test: Cell proliferation, resazurin assay; assay type: cell-based; settings: 144 h

- displacement of GFP-fused CBP bromodomain from chromatin (FRAP) [1]: significant displacement
SMILES: CCOc1ccc(C(C)=O)cc1NC(=O)Cc1csc(-c2ccc(OC)c(OC)c2)n1 [Compound 6]

- displacement of GFP-fused CBP bromodomain from chromatin (FRAP) [1]: significant displacement
SMILES: CCOc1ccc(C(C)=O)cc1NC(=O)c1ccc(C)c(NC(=O)c2ccco2)c1 [Compound 7]

- displacement of GFP-fused CBP bromodomain from chromatin (FRAP) [1]: significant displacement
SMILES: CCOc1ccc(C(C)=O)cc1NC(=O)c1cc(NC(C)=O)cc(NC(=O)c2ccc(OC)c(OC)c2)c1 [Compound 17]

- displacement of GFP-fused CBP bromodomain from chromatin (FRAP) [1]: significant displacement
SMILES: CCOc1ccc(C(C)=O)cc1-c1ccc(N2CCCS2(=O)=O)cc1C [Compound 13]

- affinity for CBP bromodomain higher by a factor with respect to BRD4(1) [5]: more than 10,000
SMILES: CCOc1ccc(C(C)=O)cc1NC(=O)c1cc(NC(C)=O)cc(NC(=O)c2ccco2)c1 [Compound 16]
- proliferation of LP1 cells [2]: selectively inhibited the proliferation
- c-MYC mRNA level [3]: reduced
- proliferation of Kasumi cells [4]: selectively inhibited the proliferation
- GI50 [6]: > 20 µM
- IRF4 mRNA level [7]: reduced
- proliferation of HL-60 cells [8]: selectively inhibited the proliferation
- displacement of GFP-fused CBP bromodomain from chromatin (FRAP) [1]: significant displacement; also recorded: strongest effect
